Reference: ChEMBL document CHEMBL1134979, “A glucose-selective fluorescence sensor based on boronic acid-diol recognition” (Bioorg Med Chem Lett, 2002)

Legend:
[1] = Binding constant for complexation with Galactose by Fluorescence experiment
[2] = Fluorescence intensity change with respect to glucose binding (100 mM) was determined by Fluorescence experiment; Increased by 7.0 fold
[3] = Binding constant for complexation with Fructose by Fluorescence experiment
[4] = Binding constant for complexation with glucose by Fluorescence experiment
[5] = Selectivity for Glucose to Fructose was determined by Fluorescence experiment
[6] = Fluorescence intensity change with respect to glucose binding (100 mM) was determined by Fluorescence experiment; Increased by 4.3 fold
[7] = Fluorescence intensity change with respect to glucose binding (100 mM) was determined by Fluorescence experiment; PBA is not fluorescent.
[8] = Fluorescence intensity change with respect to glucose binding (100 mM) was determined by Fluorescence experiment; Increased by 0.9 fold
[9] = Fluorescence intensity change with respect to glucose binding (100 mM) was determined by Fluorescence experiment; Decreased by 0.4 fold
[10] = Fluorescence intensity change with respect to glucose binding (100 mM) was determined by Fluorescence experiment; Increased by 5.5 fold
[11] = Binding constant for complexation with Fructose by Fluorescence experiment; Fluorescence was too small for an accurate Ka determination.
[12] = Fluorescence intensity change with respect to glucose binding (100 mM) was determined by Fluorescence experiment; Decreased by 0.5 fold
[13] = Selectivity for Glucose to Fructose was determined by Fluorescence experiment; Fluorescence intensity change upon binding with fructose was too small for an accurate Ka determination.

Row | SMILES | Ka [1] [M⁻¹] | Ka [3] [M⁻¹] | Ka [4] [M⁻¹] | Selectivity [5] | also measured
1 | CN(Cc1ccccc1B(O)O)Cc1c2ccccc2c(CN(C)C(=O)Cc2ccccc2CC(=O)N(C)Cc2c3ccccc3c(CN(C)Cc3ccccc3B(O)O)c3ccccc23)c2ccccc12 | 30 | 34 | 1470 | 43 | Activity [2]: Increased by 7.0 fold
2 | CN(Cc1ccccc1B(O)O)Cc1c2ccccc2c(CN(C)C(=O)CCCCC(=O)N(C)Cc2c3ccccc3c(CN(C)Cc3ccccc3B(O)O)c3ccccc23)c2ccccc12 | 105 | 77 | 638 | 8 | Activity [6]: Increased by 4.3 fold
3 | OB(O)c1ccccc1 | 15 | 162 | 5 | 0.03 | Activity [7]: PBA is not fluorescent
4 | CN(Cc1ccccc1B(O)O)Cc1c2ccccc2c(CN(C)Cc2ccccc2B(O)O)c2ccccc12 | 158 | 316 | 3980 | 13 | 
5 | OB(O)c1ccc[n+](Cc2c3ccccc3c(C[n+]3cccc(B(O)O)c3)c3ccccc23)c1 |  |  | 2510 |  | Activity [8]: Increased by 0.9 fold
6 | O=C1c2cccc3cc([N+](=O)[O-])cc(c23)C(=O)N1c1cccc(B(O)O)c1 |  | 476 | 38 | 0.08 | Activity [9]: Decreased by 0.4 fold
7 | CN(Cc1ccccc1B(O)O)Cc1c2ccccc2c(CN(C)C(=O)c2ccccc2C(=O)N(C)Cc2c3ccccc3c(CN(C)Cc3ccccc3B(O)O)c3ccccc23)c2ccccc12 | 33 | 283 | 178 | 0.6 | Activity [10]: Increased by 5.5 fold
8 | CC1=C2C[C@H]3Cc4c(CO)oc(-c5ccc(B(O)O)cc5)c4C3=C2Oc2cc(B(O)O)ccc21 | 100 |  | 4000 |  | Ka [11]: Fluorescence was too small for an accurate Ka determination; Activity [12]: Decreased by 0.5 fold; Selectivity [13]: Fluorescence intensity change upon binding with fructose was too small for an accurate Ka determination
